These results are taken from patent US6638912B2, “Peptide compositions mimicking TGF-β activity” (The Regents of the University of California, priority 1995, dated 2003).

Assay type in all cases: cell-based
In assay [1] the test system is Mv-1-Lu mink lung epithelial cells. Kind of assay: Inhibition of DNA synthesis (3H-thymidine incorporation) and proliferation of Mv-1-Lu cells. Conditions: for Inhibition in comparison to cytomodulin (Inhib by new peptide/Inhib by cytomodulin): 3H-thymidine incorporation, MV-1-Lu cells; for Inhibition of DNA synthesis / proliferation of Mv-1-Lu cells (in words): 10−9 to 10−6 M range; for Bioactivity as agonist (tested as for DNA inhibition): Example 7; for % Inhibition of incorporation of 3H-thymidine / 3H-Radioactivity: MV-1 Lu cells; for 3H-Radioactivity: control without peptide 3.57. The procedure: The effect of TGF-β and cytomodulin were evaluated by determining the rate of […]thyidine incorporation into total acid-insoluble DNA and cell number. See generally, Sampath et al., Journal of Biological Chemistry, 267, pp. 20352-20362 (1992). DNA synthesis rates were determined in triplicate cultures after 24 hour treatment with various concentrations (10−9 M to 10^−6M) of either TGF-β or cytomodulin (which was synthesized by the Merrifield method) by adding [methyl-^3H]thymidine (2 μCi/ml, 80 Ci/mmol) for 6 hours before the termination of the culture. Incorporation was terminated by aspiration of the medium, and after washing three times with phosphate-buffered saline, the trichloroacetic acid (10%)-precipitated radioactive DNA was extracted with 1.0% (w/v) sodium dodecyl sulfate, 0.1 M NaOH and quantitated by liquid scintillation counting. For cell number determination, 1×10^5 cells were plated in flasks in MEM containing 10% FBS, and after 24 hours, the growth medium was replaced with serum-free medium containing various conceptions of TGF-β and cytomodulin. Triplicate cultures were harvested every 24 hours for the duration of 7 days, and the cell number was determined by counting cells released by trypsin digestion in a fixed volume hemacytometer.
The numbers shown at the various concentration are the ratio of the inhibition rate of the peptide being tested over the inhibition rate of cytomodulin (SEQ ID NO: 1) at the same concentration.
Tests for bioactivity were conducted as described above for DNA inhibition.

Assay [2] relates to NRK-49 F normal rat kidney fibroblasts. Kind of assay: Growth and colony formation by NRK-49 F fibroblasts in soft agar. The following applies: for Colony formation in soft agar: 100 nM. The procedure: The original assay for TGF-β, the ability to promote anchorage independent growth of normal fibroblasts is still one of the hallmarks of TGF-β activity. NRK-49 F fibroblasts were grown at 37° C. in DEM supplemented with 10% fetal calf serum. […] To this, either 100 nM TGF-β (positive control) or 100 nM cytomodulin was added. NRK49 F fibroblasts (5×10^4 cells/ml) were mixed with 0.3% agar were plated on the bottom of 35 mm culture dishes. Colony formation was observed starting on day 3 of culture.

Assay [3] concerns human dermal fibroblasts. Kind of assay: Gene expression in human dermal fibroblasts (Northern analysis). The procedure:
(§1) Total cellular RNA was isolated using essentially the method described by Maniatis. Sambrook et al., Molecular Cloning: A Laboratory Marual, Cold Spring Harbor Laboratory Press, Second Edition (1989). Cells were lysed with 0.5% SDS and 0.1 potassium acetate. The lysate was extracted with phenol and centrifuiged at 5000 rpm for 15 minutes. The aqueous phase was precipitated with 2 volumes ethanol in 0.1 M Tris, pH 8.0 and 0.2 M NaCl. The pellet was resuspended and quantitated by measuring the ultraviolet absorbance at 260 nm. RNA purity was assessed by comparing the ultraviolet absorbance at 260 inm with that at 280 nm.
(§2) RNA (10 μg/lane) was electrophoresed at 3 to 4 v/cm through a 0.7% agarose, 2.2 M formaldehyde denaturing gel. RNA was transferred by capillary transfer to nylon membranes. RNA integrity, gel loading, and transfer efficiency were assessed by methylene blue stained 28S and 18 S bands. The filters were baked at 80° C. for 2 hours to immobilize the RNA. After baking, the filters were hybridized at 65° C. in 0.5 M NaPO4 buffer, pH 7.0, containing 1 mM EDTA, 7% sodium dodecyl sulfate, and 1% bovine serum albumin. cDNA probes were labeled with DDIG […] by the random primer method, using Klenow enzyme. Hybridization for 18 hours at 65° C. followed by washing, was performed.
(§3) Data were analyzed by scanning digoxigenin-dVTP according to manufacturer's procedure (Boehringer Mannheim Biochemica, DIG DNA labelling kit, Cat. No. 1175033).

Assay [4] has as its system human osteogenic sarcoma (HOS) cell line. As to the kind of experiment: Gene expression in HOS cells (Northern analysis). As to the method: as §1, §2, §3
For assay [5], the system named is TGF-β activity. As to the kind of experiment: TGF-β like activity, overall statement, test not specified.
Setting [6] is: 1 mM peptide (so in the source).

Entries after “also recorded” stand apart in the source; their conditions may differ. Square brackets hold non-standard residues; d marks the D form. Ends that are not written are not given here. NMeA = CN[C@@H](C)C(=O)O; Abu = CC[C@H](N)C(=O)O; Aib = CC(C)(N)C(=O)O

With “L-I-A-G-G-E (LIAGGE; TGF-beta mimic) [SEQ ID NO:13]”, the “Inhibition in comparison to cytomodulin (Inhib by new peptide/Inhib by cytomodulin)” value in assay [1] (1 nM) was 1.10; in assay [1] (10 nM), 1.33; in assay [1] (100 nM) it was 1.45; in assay [1] (1000 nM) it was 1.90. Further, in assay [1], the “Inhibition of DNA synthesis / proliferation of Mv-1-Lu cells (in words)” value is listed as “inhibits thymidine uptake more than SEQ ID NO: 14”.
On to “L-I-(D-Ala)-E-A-K (LI[dA]EAK) [SEQ ID NO:39]”, for which the “Bioactivity as agonist (tested as for DNA inhibition)” value in assay [1] is recorded as “active as an agonist”.
As to “L-I-A-P-E-A (LIAPEA; TGF-beta mimic) [L1]”, in assay [1], the “Inhibition of DNA synthesis / proliferation of Mv-1-Lu cells (in words)” value was “inhibited the proliferation”. Further, the “Growth and colony formation of NRK-49F cells in soft agar (in words)” value in assay [2] was “promoted the growth”. Moreover, in assay [3], the “Expression of TGF-β” value is “increased the expression”, the Expression of collagenase entry is reported as “decreased the expression” and the “Expression of type I collagen” value is recorded as “increased the expression”. In addition, in assay [4], the “Expression of TGF-β” value was “increased the expression”, the “Expression of alkaline phosphatase” value was “increased the expression” and the “Expression of type I collagen” value was “increased the expression”. The TGF-β like activity result in assay [5] was “at least as much TGF-β like activity as cytomodulin”.
For “L-(Abu)-A-E-A-K (L[Abu]AEAK) [SEQ ID NO:6]”, the “% Inhibition of incorporation of 3H-thymidine” value (“% Inhibition” for short) in assay [1] (1 nM peptide) was determined as 33%; in assay [1] (5 nM peptide) it was 35%. Moreover, the 3H-Radioactivity is reported as 2.02 10^3 dpm in assay [1] (1 nM peptide) and 1.97 10^3 dpm in assay [1] (5 nM peptide).
Turning to “L-I-A-D-A-K (LIADAK; TGF-beta mimic) [SEQ ID NO:9]”, the “Inhibition in comparison to cytomodulin (Inhib by new peptide/Inhib by cytomodulin)” value is on record as 0.45 in assay [1] (1 nM), 0.87 in assay [1] (10 nM), 1.14 in assay [1] (100 nM) and 1.25 in assay [1] (1000 nM).
On to “L-I-(Nme-A)-E-A-K (LI[NMeA]EAK) [SEQ ID NO:5]”, for which the “% Inhibition” value in assay [1] (1 nM peptide) is on record as 47%; in assay [1] (5 nM peptide), 42%; in assay [1] (50 nM peptide), 41%; in assay [1] (100 nM peptide) it was 40%; in assay [1] (500 nM peptide) it was 53%. In addition, the 3H-Radioactivity in assay [1] (1 nM peptide) was 1.61 10^3 dpm; in assay [1] (5 nM peptide), 1.76 10^3 dpm; in assay [1] (50 nM peptide), 1.60 10^3 dpm; in assay [1] (100 nM peptide), 1.81 10^3 dpm; in assay [1] (500 nM peptide), 1.42 10^3 dpm.
Regarding “L-I-A-G-E-G (LIAGEG; TGF-beta mimic) [SEQ ID NO:14]”, the “Inhibition in comparison to cytomodulin (Inhib by new peptide/Inhib by cytomodulin)” value in assay [1] (1 nM) amounted to 0.66; in assay [1] (10 nM), 0.85; in assay [1] (100 nM) it was 1.41; in assay [1] (1000 nM) it was 1.88.
Regarding “G-G-Q-I-A-N-I (GGQIANI; TGF-beta mimic) [SEQ ID NO:7]”, the TGF-β like activity result in assay [5] was “did not display significant TGF-β activity”.
Take “A-N-V-A-E-K (ANVAEK; TGF-beta mimic) [SEQ ID NO:15]”: the “Inhibition in comparison to cytomodulin (Inhib by new peptide/Inhib by cytomodulin)” value in assay [1] (10 nM) is on record as 0.80; in assay [1] (100 nM), 1.00.
In the case of “L-(Aib)-A-E-A-K (L[Aib]AEAK) [SEQ ID NO:4]”, the “% Inhibition” value in assay [1] (5 nM peptide) is given as 35%; in assay [1] (50 nM peptide) it was 46%; in assay [1] (100 nM peptide), 60%; in assay [1] (500 nM peptide), 55%; in assay [1] (setting [6]), 27%. Further, the 3H-Radioactivity in assay [1] (5 nM peptide) is 2.31 10^3 dpm; in assay [1] (50 nM peptide), 1.94 10^3 dpm; in assay [1] (100 nM peptide), 1.44 10^3 dpm; in assay [1] (500 nM peptide), 1.61 10^3 dpm; in assay [1] (setting [6]), 2.60 10^3 dpm.
In the case of “L-I-A-N-A-K (LIANAK; TGF-beta mimic) [SEQ ID NO:10]”, the “Inhibition in comparison to cytomodulin (Inhib by new peptide/Inhib by cytomodulin)” value in assay [1] (1 nM) is listed as 1.70; in assay [1] (10 nM), 2.00; in assay [1] (100 nM), 1.43; in assay [1] (1000 nM), 3.05. Besides, in assay [1], the “Inhibition of DNA synthesis / proliferation of Mv-1-Lu cells (in words)” value is reported as “even more than cytomodulin at every concentration tested”.
With “L-I-A-Q-A-K (LIAQAK; TGF-beta mimic) [SEQ ID NO:12]”, the “Inhibition in comparison to cytomodulin (Inhib by new peptide/Inhib by cytomodulin)” value was 0.90 in assay [1] (1 nM), 1.10 in assay [1] (10 nM), 0.80 in assay [1] (100 nM) and 1.56 in assay [1] (1000 nM).
As for “A-N-V-A-E-N-A (ANVAENA; TGF-beta mimic) [cytomodulin]”, in assay [1], the “Inhibition of DNA synthesis / proliferation of Mv-1-Lu cells (in words)” value is “inhibition of DNA synthesis; also recorded: at least as much as TGF-β”. In addition, the “Colony formation in soft agar” value in assay [2] (with EGF and PDGF) is “formed colonies to approximately the same extent as the TGF-β cultures; also recorded: much larger colonies”. Further, in assay [2] (without EGF and PDGF), the “Colony formation in soft agar” value is reported as “did induce colony formation; also recorded: formation of small colonies”. In addition, the “Expression of type I collagen” value in assay [3] was “induction of increased expression”. In assay [4], the “Expression of TGF-β” value is “increased the expression”, the “Expression of alkaline phosphatase” value is “stimulate; also recorded: increased the expression”, the Expression of osteonectin result is listed as “stimulate” and the “Expression of type I collagen” value is recorded as “increased the expression”.
For the substance “E-G-I-A-G-K (EGIAGK; TGF-beta mimic) [SEQ ID NO:8]”, in assay [5], the TGF-β like activity result was “did not display significant TGF-β activity”.
In the case of “L-I-A-E-A-A (LIAEAA; TGF-beta mimic) [SEQ ID NO:11]”, the “Inhibition in comparison to cytomodulin (Inhib by new peptide/Inhib by cytomodulin)” value was determined as 1.16 in assay [1] (1 nM), 1.00 in assay [1] (10 nM), 1.17 in assay [1] (100 nM) and 1.85 in assay [1] (1000 nM). The “Inhibition of DNA synthesis / proliferation of Mv-1-Lu cells (in words)” value in assay [1] is “at least as much activity as cytomodulin”.
Take “L-I-P-E-A-K (LIPEAK; TGF-beta mimic) [SEQ ID NO:21]”: the “Bioactivity as agonist (tested as for DNA inhibition)” value in assay [1] is listed as “active as an agonist”.
“L-I-A-K-G-K (LIAKGK; TGF-beta mimic) [SEQ ID NO:16]”: the “Inhibition in comparison to cytomodulin (Inhib by new peptide/Inhib by cytomodulin)” value is recorded as 0.65 in assay [1] (10 nM) and 0.67 in assay [1] (100 nM).
Take “L-I-(Aib)-E-A-K (LI[Aib]EAK) [SEQ ID NO:22]”: the “Bioactivity as agonist (tested as for DNA inhibition)” value in assay [1] is reported as “active as an agonist”.
